# According to US11732259B2, “Peptide oligonucleotide conjugates” (Sarepta Therapeutics, Inc., priority 2011, dated 2023):
# {EG3} = triethylene glycol 5' cap structure on the morpholino oligomer
# Key:
# [1] = format: in vivo, mouse
# Protocol: Mice were treated with the conjugates described in Example 30, and KIM-1 levels, BUN levels and survival rate were determined according to the general procedures described in Example 32 below and known in the art. […]. The day of dosing on the study was designated as Study Day 1. Conjugate was administered via tail vein as a slow push bolus (˜5 seconds). All animals were dosed over two days. Groups 1-8 were dosed on the first day and Groups 9-16 were dosed on the second day. Treatment Groups (TG) 13-16 were dosed per the table above. […] The first 2 TG of each conjugate were dosed per the table above. If all animals in 100 mg/kg group died then the remaining TGs of that test article would not be dosed and the study would end. If at least one animal survived 2 hours post-dose in the 100 mg/kg group, then the 150 mg/kg group was dosed. If all animals in the 150 mg/kg group died then the remaining TGs of that test article would not be dosed and the study would end. […]
# Any animal showing signs of distress, particularly if death appeared imminent was humanely euthanized according to Numira Biosciences Standard Operating Procedures. Body weights were recorded on the day after arrival, the day of dosing, and the day of necropsy. Detailed clinical observations were conducted and recorded at 0 minutes, 15 minutes, and 2 hours post-dose to assess tolerability of injections.
# KIM-1 = format: in vivo, mouse; conditions: Example 32, FIG. 10; C57/BL6 mice, single i.v. tail vein injection, kidney qRT-PCR vs GAPDH
# Protocol: Mice were treated with the conjugates described in Example 30, and KIM-1 levels, BUN levels and survival rate were determined according to the general procedures described in Example 32 below and known in the art. […]. The right and left kidneys were collected. Tissues were collected within minutes or less of euthanasia. All instruments and tools used were changed between treatment groups. All tissues were flash frozen and stored at <−70° C. as soon as possible after collection.
# Kidney injury marker data was obtained as follows. RNA from mouse kidney tissue was purified using Quick Gene Mini80 Tissue Kit SII (Fuji Film). Briefly, approximately 40 mg of tissue was added to 0.5 ml lysis buffer (5 μl […] in 0.5 ml lysis buffer) in a MagnaLyser Green Bead vial (Roche) and homogenized using MagNA Lyser (Roche) with 2 sets of 3×3800 RPM and 3 sets of 1×6500 RPM.
# Samples were cooled on ice 3-4 minutes between each low speed set and between each higher speed run. Homogenates were centrifuged 5 minute at 400×g at room temperature. The homogenate was immediately processed for RNA purification according to the Quick Gene Mini80 protocol. […] Total RNA was quantitated with a NanoDrop 2000 spectrophotometer (Thermo Scientific). […]
# Analysis was performed using ΔΔCt method. […] Fold change range calculated: 2^−(ΔΔCt+SD) to 2^−(ΔΔCt-SD). […]
# dystrophin mRNA exon 23 = assay: Exon 23 skipping in MDX mice, end-point PCR on muscle RNA
# Protocol: MDX mice were dosed once (50 mg/kg) by tail vein injection with one of the following conjugates:
# One week post-injection, the MDX mice were sacrificed and RNA was extracted from various muscle tissues. End-point PCR was used to determine the relative abundance of dystrophin mRNA containing exon 23 and mRNA lacking exon 23 due to antisense-induced exon skipping. Percent exon 23 skipping is a measure of antisense activity in vivo.
# [2] = tested on: exon 23 of the dystrophin gene; conditions: in vivo; cited from earlier work
# RSV [3] = conditions: cultures of two human airway cell lines (Lai, Stein et al. 2008); cited from earlier work
# RSV [4] = conditions: BALB/c mice, intranasal treatment before RSV inoculation, cited from earlier work
substance,measurement,setting,value
5′-EG3-M23D-G(R)6 [NG-11-0009],Doses at which all mice survived,"[1]; Example 31, data not shown",up to 400 mg/kg
same,KIM concentrations,KIM-1,lowest
same,"Percent exon 23 skipping, diaphragm","dystrophin mRNA exon 23; dosed once 50 mg/kg tail vein, one week post-injection, diaphragm (FIGS. 5B, 6B), amongst the arginine series",highest efficacy
same,"Percent exon 23 skipping, quadriceps","dystrophin mRNA exon 23; dosed once 50 mg/kg tail vein, one week post-injection, quadriceps (FIGS. 5A, 6A), amongst the arginine series",highest efficacy
"5′-EG3-M23D-BX(RXRRBR)2 (GGCCAAACCTCGGCTTACCTGAAAT; all phosphorodiamidate morpholino (PMO), 5' {EG3}; morpholino, carrier peptide BX(RXRRBR)2 conjugated at 3' end) [AVI-5225]",Activity in the MDX mouse model for DMD,[2],activity
same,Dose response of exon 23 skipping,"dystrophin mRNA exon 23; one week post-treatment, AVI-5225 compared with the other conjugates",similar
5′-EG3-M23D-G(R)8 [NG-11-0216],Survival rate,"[1]; Example 31, FIG. 7B, compared with the XB linked conjugate / amongst the arginine polymers",least tolerated of the arginine polymers
"TAATGGGATCCATTTTGTCCC (all phosphorodiamidate morpholino (PMO); peptide-conjugated morpholino (PPMO), peptide not given here) [RSV-AUG-2, peptide conjugated PMO (PPMO) targeting the translation start-site region of RSV L mRNA]",Reduction of viral titers,RSV [3],> 2.0 log10
same,Reduction in viral titer in lung tissue,RSV [4]; day 5 postinfection,1.2 log10
same,Pulmonary inflammation,RSV [4]; day 7 postinfection,attenuated
